Assay results from patent publication US20180193493A1, “RENAL IMAGING AGENT” (NIHON MEDI-PHYSICS CO., LTD., priority 2014, published 2018).

What was measured:
[1] = system: healthy models (physiological saline-treated Lewis rats), kidneys excluding the renal pelvis; test: PET imaging (static, SUV) in healthy models; assay type: in vivo
Protocol: (§1) As healthy models, four cases prepared by administering an equivalent amount of physiological saline instead of adriamycin were used.
(§2) ^18F-HIC101 (radiochemical purity: 84.2%) was administered to the four CKD models prepared in Example 1 at 18.6±0.9 MBq/rat and to four healthy models at 17.0±2.7 MBq/rat, and after 80 minutes from the administration, static imaging was performed using a PET system for animals (eXplore Vista from GE). The collection conditions were 10 minutes at an energy window of 250 to 700 keV. The collected data were reconstructed and imaged using the 3D-OSEM method. From the images, the average of maximum values of SUV (standardized uptake value) of the kidneys (the region of interest (ROI) was set excluding the renal pelvis) and the average value of SUV of normal tissue in each slice were measured. Based on these values, the lesion-to-normal tissue ratio and the normal kidney-to-normal tissue ratio were used for evaluation. Student's t-test was used for statistical analysis of the measured results.
(§3) ^18F-FMISO (radiochemical purity: 96% or more) was administered to the four CKD models prepared in Example 1 at 18.7±1.1 MBq/rat and to four healthy models at 19.5±0.69 MBq/rat, and after 80 minutes from the administration, static imaging was performed using a PET system for animals (eXplore Vista from GE). One case each from each of the groups was placed under anesthesia again after the PET imaging, and imaging was performed after 180 minutes from the administration. The collection conditions were 10 minutes at an energy window of 250 to 700 keV, and the collected data were reconstructed and imaged using the 3D-OSEM method. From the images, the average of maximum values of SUV of the kidneys (the region of interest (ROI) was set excluding the renal pelvis) and the average value of SUV of normal tissue in each slice were measured. Based on these values, the lesion-to-normal tissue ratio and the normal kidney-to-normal tissue ratio were used for evaluation. Student's t-test was used for statistical analysis of the measured results.

[2] = system: CKD model animals (adriamycin-treated Lewis rats); test: Experiment of in vivo distribution in CKD models; settings: 100 minutes after administration
Protocol: (§4) Adriamycin (from Wako Pure Chemical Industries, Ltd., 7.5 mg/kg) was administered to 13 Lewis rats (male, 8-week-old, available from Japan SLC, Inc.) via the tail vein, and urinary protein was measured in accordance with the Bradford method on day 13 after the administration, for 11 cases excluding two dead cases. Of these, four cases having a high urinary protein level were selected as CKD model animals, and used in the below-described examples on day 14 after the administration of adriamycin.
(§5) After the completion of the PET imaging in Example 2, these rats were placed under anesthesia until 100 minutes after the administration, and were sacrificed by exsanguination. Then, the left and right kidneys, blood, brain, lung, heart, liver, spleen, stomach, small intestine, large intestine, adrenal gland, muscles, bones, fat around the kidneys, urine, and the remaining whole body were extracted, and weights and amounts of radioactivity were measured. Student's t-test was used for statistical analysis of the results.
as §5, with “Three cases from each of” for “After”, “groups that underwent” for “completion of”, “imaging after 80 minutes from the administration” for “imaging”, “5, as well as one case from each of the groups that had not undergone PET imaging,” for “2, these rats”

[3] = system: healthy models (physiological saline-treated Lewis rats); test: Experiment of in vivo distribution in healthy models; settings: healthy model; 100 minutes after administration
Protocol: as §1, §5
as §5, with “Three cases from each of” for “After”, “groups that underwent” for “completion of”, “imaging after 80 minutes from the administration” for “imaging”, “5, as well as one case from each of the groups that had not undergone PET imaging,” for “2, these rats”

[4] = system: CKD model animals (adriamycin-treated Lewis rats), kidneys excluding the renal pelvis; test: PET imaging (static, SUV) in CKD models; assay type: in vivo
Protocol: as §4, §2, §3

[5] = healthy model group, PET after 80 min from administration
[6] = healthy model group, PET after 80 min from administration, ROI excluding renal pelvis
[7] = CKD model group, PET after 80 min from administration
[8] = CKD model group, PET after 80 min from administration, ROI excluding renal pelvis
[9] = healthy model, one case, PET after 180 min from administration
[10] = CKD model, one case, PET after 180 min from administration

O=[N+]([O-])c1nccn1CC(CO)(CO)C[18F] [^18F-HIC101, 2-[^18F]fluoromethyl-2-((2-nitro-1H-imidazol-1-yl)methyl)-1,3-propanediol]
Normal Tissue SUV Average Value [1, 5]: 0.37 ± 0.06
Renal Tissue (Lesion or Normal)-to-Normal Tissue Ratio, Left [1, 5]: 3.69 ± 0.37
Renal Tissue (Lesion or Normal)-to-Normal Tissue Ratio, Right [1, 5]: 3.77 ± 0.66
Renal Tissue SUV Maximum Value, Left [1, 5]: 1.37 ± 0.28
Renal Tissue SUV Maximum Value, Right [1, 6]: 1.42 ± 0.43
SUV maximum value of the healthy model examined for HIF-1α expression ([1]; individual healthy model of FIG. 3): 1.06
In vivo distribution (radioactivity uptake), Blood [2]: 0.16 ± 0.04
In vivo distribution (radioactivity uptake), Heart [2]: 0.18 ± 0.04
In vivo distribution (radioactivity uptake), Kidney (Left) [2]: 2.11 ± 0.44
In vivo distribution (radioactivity uptake), Kidney (Right) [2]: 2.60 ± 0.58
In vivo distribution (radioactivity uptake), Large Intestine [2]: 3.17 ± 0.08
In vivo distribution (radioactivity uptake), Liver [2]: 0.34 ± 0.05
In vivo distribution (radioactivity uptake), Lung [2]: 0.18 ± 0.05
In vivo distribution (radioactivity uptake), Muscles [2]: 0.26 ± 0.04
In vivo distribution (radioactivity uptake), Small Intestine [2]: 0.25 ± 0.82
In vivo distribution (radioactivity), Urine [2]: 29.9 ± 14.9 % ID
In vivo distribution (radioactivity uptake), Blood [3]: 0.08 ± 0.03
In vivo distribution (radioactivity uptake), Heart [3]: 0.09 ± 0.03
In vivo distribution (radioactivity uptake), Kidney (Left) [3]: 1.17 ± 0.61
In vivo distribution (radioactivity uptake), Kidney (Right) [3]: 1.01 ± 0.24
In vivo distribution (radioactivity uptake), Large Intestine [3]: 0.32 ± 0.44
In vivo distribution (radioactivity uptake), Liver [3]: 0.23 ± 0.06
In vivo distribution (radioactivity uptake), Lung [3]: 0.08 ± 0.03
In vivo distribution (radioactivity uptake), Muscles [3]: 0.09 ± 0.03
In vivo distribution (radioactivity uptake), Small Intestine [3]: 4.50 ± 0.70
In vivo distribution (radioactivity), Urine [3]: 34.4 ± 23.3 % ID
Normal Tissue SUV Average Value [4, 7]: 0.46 ± 0.04^$
Renal Tissue (Lesion or Normal)-to-Normal Tissue Ratio, Left [4, 7]: 11.59 ± 1.88
Renal Tissue (Lesion or Normal)-to-Normal Tissue Ratio, Right [4, 7]: 11.33 ± 1.57
Renal Tissue SUV Maximum Value, Left [4, 7]: 5.25 ± 0.55
Renal Tissue SUV Maximum Value, Right [4, 8]: 5.17 ± 0.70
SUV maximum value of renal tissue in the example shown in FIG. 1 ([4]; MIP PET image of FIG. 1, after 80 minutes from administration): 10
SUV maximum value of the CKD model examined for HIF-1α expression, (left) ([4]; individual CKD model of FIG. 3, (left)): 4.30
SUV maximum value of the CKD model examined for HIF-1α expression, (right) ([4]; individual CKD model of FIG. 3, (right)): 5.12
Comparison of uptake in the CKD models between the two agents ([4]; summary of Examples 2 to 6): higher than the uptake of ^18F-FMISO
Uptake into renal tissue excluding the renal pelvis, CKD models versus healthy models ([4]; summary of Examples 2 to 6): uptaken into the renal tissue excluding the renal pelvis in the CKD models significantly, compared with the healthy models

O=[N+]([O-])c1nccn1CC(O)C[18F] (stereo not shown) [^18F-FMISO, 1-[^18F]fluoro-3-(2-nitro-1H-imidazol-1-yl)-2-propanol]
Normal Tissue SUV Average Value [1, 5]: 0.89 ± 0.03
Renal Tissue (Lesion or Normal)-to-Normal Tissue Ratio, Left [1, 5]: 1.95 ± 0.05
Renal Tissue (Lesion or Normal)-to-Normal Tissue Ratio, Right [1, 5]: 1.89 ± 0.13
Renal Tissue SUV Maximum Value, Left [1, 5]: 1.74 ± 0.08
Renal Tissue SUV Maximum Value, Right [1, 6]: 1.68 ± 0.14
Normal Tissue SUV Average Value [1, 9]: 0.72
Renal Tissue (Lesion or Normal)-to-Normal Tissue Ratio, Left [1, 9]: 2.31
Renal Tissue (Lesion or Normal)-to-Normal Tissue Ratio, Right [1, 9]: 2.26
Renal Tissue SUV Maximum Value, Left [1, 9]: 1.67
Renal Tissue SUV Maximum Value, Right [1, 9]: 1.63
In vivo distribution (radioactivity uptake), Blood [2]: 0.44 ± 0.02
In vivo distribution (radioactivity uptake), Heart [2]: 0.53 ± 0.01
In vivo distribution (radioactivity uptake), Kidney (Left) [2]: 1.08 ± 0.28
In vivo distribution (radioactivity uptake), Kidney (Right) [2]: 1.09 ± 0.29
In vivo distribution (radioactivity uptake), Large Intestine [2]: 1.14 ± 0.10
In vivo distribution (radioactivity uptake), Liver [2]: 0.89 ± 0.28
In vivo distribution (radioactivity uptake), Lung [2]: 0.48 ± 0.02
In vivo distribution (radioactivity uptake), Muscles [2]: 0.47 ± 0.02
In vivo distribution (radioactivity uptake), Small Intestine [2]: 1.54 ± 0.67
In vivo distribution (radioactivity), Urine [2]: 2.60 ± 2.16 % ID
In vivo distribution (radioactivity uptake), Blood [3]: 0.30 ± 0.02
In vivo distribution (radioactivity uptake), Heart [3]: 0.34 ± 0.02
In vivo distribution (radioactivity uptake), Kidney (Left) [3]: 0.53 ± 0.03
In vivo distribution (radioactivity uptake), Kidney (Right) [3]: 0.55 ± 0.03
In vivo distribution (radioactivity uptake), Large Intestine [3]: 1.52 ± 0.15
In vivo distribution (radioactivity uptake), Liver [3]: 0.50 ± 0.04
In vivo distribution (radioactivity uptake), Lung [3]: 0.31 ± 0.02
In vivo distribution (radioactivity uptake), Muscles [3]: 0.30 ± 0.02
In vivo distribution (radioactivity uptake), Small Intestine [3]: 0.74 ± 0.11
In vivo distribution (radioactivity), Urine [3]: 9.50 ± 1.75 % ID
Normal Tissue SUV Average Value [4, 7]: 0.94 ± 0.11
Renal Tissue (Lesion or Normal)-to-Normal Tissue Ratio, Left [4, 7]: 2.11 ± 0.14
Renal Tissue (Lesion or Normal)-to-Normal Tissue Ratio, Right [4, 7]: 2.22 ± 0.10
Renal Tissue SUV Maximum Value, Left [4, 7]: 1.97 ± 0.15
Renal Tissue SUV Maximum Value, Right [4, 8]: 2.08 ± 0.22
Normal Tissue SUV Average Value [4, 10]: 0.87
Renal Tissue (Lesion or Normal)-to-Normal Tissue Ratio, Left [4, 10]: 3.17
Renal Tissue (Lesion or Normal)-to-Normal Tissue Ratio, Right [4, 10]: 2.87
Renal Tissue SUV Maximum Value, Left [4, 10]: 2.77
Renal Tissue SUV Maximum Value, Right [4, 10]: 2.51
Uptake in renal cortex versus renal pelvis ([4]; PET images after 180 minutes compared with after 80 minutes from administration): a tendency toward a higher uptake in the renal cortex than in the renal pelvis
Change of SUV maximum value (ROI analysis) ([4]; after 180 minutes versus after 80 minutes from administration): a tendency for the SUV maximum value to increase more than that after 80 minutes from the administration
Uptake into renal tissue excluding the renal pelvis, CKD models versus healthy models ([4]; summary of Examples 2 to 6): uptaken into the renal tissue excluding the renal pelvis in the CKD models significantly, compared with the healthy models
